Reference: PubChem BioAssay AID2060899 (Molecular Pharmacology Branch, DTP, NCI, 2025)
pIC50: −log10 of the molar value.

System: 565726-208-R1-J5-PDC complex spheroids, growth inhibition
Experiment: Anticancer human tumor 565726-208-R1-J5-PDC patient-derived pancreatic adenocarcinoma cell line growth inhibition [RAS]
Conditions: for pIC50: curve of first compound; for viability, T/C: stronger effect = lower value
Procedure, shortened: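 Multi-cell-type spheroids: tumor cells plus HUVEC endothelial cells and mesenchymal stem cells. RAS-pathway inhibitors were combined with targeted agents, each dosed in half-log steps down from clinical Cmax, or from 10 microM when Cmax was unknown.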

[1] = second compound 0.000949 µM, first compound 0.0316 µM
[2] = second compound 0.000949 µM, first compound 0.1 µM
[3] = second compound 0.000949 µM, first compound 0.316 µM
[4] = second compound 0.000949 µM, first compound 1 µM
[5] = second compound 0.000949 µM, first compound 3.16 µM
[6] = second compound 0.000949 µM, first compound 10 µM
[7] = second compound 0.003 µM, first compound 0.0316 µM
[8] = second compound 0.003 µM, first compound 0.1 µM
[9] = second compound 0.003 µM, first compound 0.316 µM
[10] = second compound 0.003 µM, first compound 1 µM
[11] = second compound 0.003 µM, first compound 3.16 µM
[12] = second compound 0.003 µM, first compound 10 µM
[13] = second compound 0.00949 µM, first compound 0.0316 µM
[14] = second compound 0.00949 µM, first compound 0.1 µM
[15] = second compound 0.00949 µM, first compound 0.316 µM
[16] = second compound 0.00949 µM, first compound 1 µM
[17] = second compound 0.00949 µM, first compound 3.16 µM
[18] = second compound 0.00949 µM, first compound 10 µM
[19] = second compound 0.03 µM, first compound 0.0316 µM
[20] = second compound 0.03 µM, first compound 0.1 µM
[21] = second compound 0.03 µM, first compound 0.316 µM
[22] = second compound 0.03 µM, first compound 1 µM
[23] = second compound 0.03 µM, first compound 3.16 µM
[24] = second compound 0.03 µM, first compound 10 µM
[25] = second compound 0.0949 µM, first compound 0.0316 µM
[26] = second compound 0.0949 µM, first compound 0.1 µM
[27] = second compound 0.0949 µM, first compound 0.316 µM
[28] = second compound 0.0949 µM, first compound 1 µM
[29] = second compound 0.0949 µM, first compound 3.16 µM
[30] = second compound 0.0949 µM, first compound 10 µM
[31] = second compound 0.3 µM, first compound 0.0316 µM
[32] = second compound 0.3 µM, first compound 0.1 µM
[33] = second compound 0.3 µM, first compound 0.316 µM
[34] = second compound 0.3 µM, first compound 1 µM
[35] = second compound 0.3 µM, first compound 3.16 µM
[36] = second compound 0.3 µM, first compound 10 µM
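Further: spheroids exposed to compounds for seven days before readout.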
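Wherever viability, T/C is given: 100% = DMSO vehicle control viability.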

CC1(O)CCCC1n1c(=O)c(C(F)F)cc2cnc(NC3CCN(S(C)(=O)=O)CC3)nc21 (stereo unspecified) + CCn1c(-c2cccnc2C(C)OC)c2c3cc(ccc31)N1CCOC(CC(NC(=O)C(C(C)C)N(C)C(=O)C3(F)CCN(C(=O)C#CC(C)(C)N(C)C)CC3)C(=O)N3CCCC(N3)C(=O)OCC(C)(C)C2)C1
pIC50 (second compound 0.000949 µM): 5.80
pIC50 (second compound 0.003 µM): 5.76
pIC50 (second compound 0.00949 µM): 5.61
pIC50 (second compound 0.03 µM): 5.67
pIC50 (second compound 0.0949 µM): 6.13
pIC50 (second compound 0.3 µM): 5.78
viability, T/C [1]: 89.3%
viability, T/C [2]: 65.9%
viability, T/C [3]: 61.5%
viability, T/C [4]: 55.9%
viability, T/C [5]: 48%
viability, T/C [6]: 4.71%
viability, T/C [7]: 92.6%
viability, T/C [8]: 66.7%
viability, T/C [9]: 59.9%
viability, T/C [10]: 61.9%
viability, T/C [11]: 47.5%
viability, T/C [12]: 5.57%
viability, T/C [13]: 87.1%
viability, T/C [14]: 73.3%
viability, T/C [15]: 64%
viability, T/C [16]: 65.4%
viability, T/C [17]: 50.4%
viability, T/C [18]: 4.99%
viability, T/C [19]: 79.3%
viability, T/C [20]: 70.6%
viability, T/C [21]: 64.6%
viability, T/C [22]: 55%
viability, T/C [23]: 51.5%
viability, T/C [24]: 5.14%
viability, T/C [25]: 86.3%
viability, T/C [26]: 72.7%
viability, T/C [27]: 53.8%
viability, T/C [28]: 53%
viability, T/C [29]: 49.9%
viability, T/C [30]: 3.75%
viability, T/C [31]: 68%
viability, T/C [32]: 64.2%
viability, T/C [33]: 54.3%
viability, T/C [34]: 54.1%
viability, T/C [35]: 45.4%
viability, T/C [36]: 3.4%

CC1(C)CCC(Nc2ncc(C(F)(F)F)c(-c3c[nH]c4c(P(C)(C)=O)c(C#N)ccc34)n2)CN1 (stereo unspecified) + C#Cc1c(F)ccc2cc(O)cc(-c3ncc4c(N5CC6CCC(C5)N6)nc(OCC56CCCN5CC(F)C6)nc4c3F)c12
pIC50 (second compound 0.0316 µM): 8.19
pIC50 (second compound 0.1 µM): 8.18
pIC50 (second compound 0.316 µM): 8.17
pIC50 (second compound 1 µM): 8.11
pIC50 (second compound 3.16 µM): 7.94
pIC50 (second compound 10 µM): 8.53
viability, T/C (second compound 0.0316 µM, first compound 0.000949 µM): 87.7%
viability, T/C (second compound 0.0316 µM, first compound 0.003 µM): 75.5%
viability, T/C (second compound 0.0316 µM, first compound 0.00949 µM): 36.9%
viability, T/C (second compound 0.0316 µM, first compound 0.03 µM): 33.9%
viability, T/C (second compound 0.0316 µM, first compound 0.0949 µM): 35.6%
viability, T/C (second compound 0.0316 µM, first compound 0.3 µM): 36.8%
viability, T/C (second compound 0.1 µM, first compound 0.000949 µM): 77.7%
viability, T/C (second compound 0.1 µM, first compound 0.003 µM): 64%
viability, T/C (second compound 0.1 µM, first compound 0.00949 µM): 44.5%
viability, T/C (second compound 0.1 µM, first compound 0.03 µM): 35.6%
viability, T/C (second compound 0.1 µM, first compound 0.0949 µM): 39.9%
viability, T/C (second compound 0.1 µM, first compound 0.3 µM): 40.6%
viability, T/C (second compound 0.316 µM, first compound 0.000949 µM): 75%
viability, T/C (second compound 0.316 µM, first compound 0.003 µM): 68.5%
viability, T/C (second compound 0.316 µM, first compound 0.00949 µM): 42.5%
viability, T/C (second compound 0.316 µM, first compound 0.03 µM): 42.2%
viability, T/C (second compound 0.316 µM, first compound 0.0949 µM): 43.7%
viability, T/C (second compound 0.316 µM, first compound 0.3 µM): 37.6%
viability, T/C (second compound 1 µM, first compound 0.000949 µM): 65.7%
viability, T/C (second compound 1 µM, first compound 0.003 µM): 64.6%
viability, T/C (second compound 1 µM, first compound 0.00949 µM): 46.1%
viability, T/C (second compound 1 µM, first compound 0.03 µM): 44.3%
viability, T/C (second compound 1 µM, first compound 0.0949 µM): 54%
viability, T/C (second compound 1 µM, first compound 0.3 µM): 43%
viability, T/C (second compound 3.16 µM, first compound 0.000949 µM): 60%
viability, T/C (second compound 3.16 µM, first compound 0.003 µM): 59.3%
viability, T/C (second compound 3.16 µM, first compound 0.00949 µM): 46.5%
viability, T/C (second compound 3.16 µM, first compound 0.03 µM): 45.3%
viability, T/C (second compound 3.16 µM, first compound 0.0949 µM): 50.4%
viability, T/C (second compound 3.16 µM, first compound 0.3 µM): 45.7%
viability, T/C (second compound 10 µM, first compound 0.000949 µM): 62.6%
viability, T/C (second compound 10 µM, first compound 0.003 µM): 50.2%
viability, T/C (second compound 10 µM, first compound 0.00949 µM): 47.2%
viability, T/C (second compound 10 µM, first compound 0.03 µM): 47.4%
viability, T/C (second compound 10 µM, first compound 0.0949 µM): 52.6%
viability, T/C (second compound 10 µM, first compound 0.3 µM): 46.5%

CC(=O)OC12COC1CC(O)C1(C)C(=O)C(O)C3=C(C)C(OC(=O)C(O)C(NC(=O)OC(C)(C)C)c4ccccc4)CC(O)(C(OC(=O)c4ccccc4)C21)C3(C)C (stereo unspecified) + CCn1c(-c2cc(N3CCN(C)CC3)cnc2C(C)OC)c2c3cc(ccc31)-c1csc(n1)CC(NC(=O)C1CC1C)C(=O)N1CCCC(N1)C(=O)OCC(C)(C)C2
pIC50 (second compound 0.000949 µM): > 7.50
pIC50 (second compound 0.003 µM): > 7.50
pIC50 (second compound 0.00949 µM): > 7.50
pIC50 (second compound 0.03 µM): > 7.50
pIC50 (second compound 0.0949 µM): > 7.50
pIC50 (second compound 0.3 µM): > 7.50
viability, T/C [1]: 20.3%
viability, T/C [2]: 17%
viability, T/C [3]: 19.2%
viability, T/C [4]: 17.7%
viability, T/C [5]: 20.2%
viability, T/C [6]: 20.8%
viability, T/C [7]: 20.4%
viability, T/C [8]: 17.7%
viability, T/C [9]: 17.2%
viability, T/C [10]: 15.5%
viability, T/C [11]: 18.7%
viability, T/C [12]: 18.4%
viability, T/C [13]: 17.9%
viability, T/C [14]: 17.1%
viability, T/C [15]: 14.7%
viability, T/C [16]: 16%
viability, T/C [17]: 17.6%
viability, T/C [18]: 15.2%
viability, T/C [19]: 14.5%
viability, T/C [20]: 13.7%
viability, T/C [21]: 11.5%
viability, T/C [22]: 14.5%
viability, T/C [23]: 13.7%
viability, T/C [24]: 13.6%
viability, T/C [25]: 11.7%
viability, T/C [26]: 13%
viability, T/C [27]: 14.6%
viability, T/C [28]: 12.5%
viability, T/C [29]: 14.1%
viability, T/C [30]: 11.3%
viability, T/C [31]: 10.4%
viability, T/C [32]: 10.5%
viability, T/C [33]: 11.4%
viability, T/C [34]: 11.3%
viability, T/C [35]: 12%
viability, T/C [36]: 10.4%
